Patent US6719976B1, “Peptide-based immunotherapeutic agent for treating allergic diseases” (Meiji Milk Products Co., Ltd., priority 1996, dated 2004)

Tests used:
Type in all cases: cell-based, human
T cell clones = assay: Recognizing the T cell epitopes in the multi-epitope peptide C.A.#4 by T cell clones; settings: clones PB8-3, PB8-34, PB4-22, PB14-5, PB14-3; C.A.#4 10 μg/ml
Protocol: The antigenic peptide constituting the multi-epitope peptide C.A.#4 obtained in Example 6 was examined to determine if the antigenic peptide actually functions as a T cell epitope.
On a 96-well micro culture plate, a mixture of 5×10^4 cells of the autologous B cell line previously treated with mitomycin C and 2×10^4 cells of the T cell clone was incubated for 2 days in 0.2 ml 15% serum-supplemented RPMI-1640 medium, together with, as an antigen, either 50 μg/ml of Cry j 1 and 2 μg/ml of Cry j 2, each antigenic peptide constituting the multi-epitope peptide C.A.#4 or 10 μg/ml C.A.#4 multi-epitope peptide produced by gene expression. After 0.5 μCi [^3H] thymidine was added to the medium, incubation was continued for a further 16 hours. After the cells were harvested on a glass filter using a cell harvester, the level of [^3H] thymidine taken up into the cells was determined using a liquid scintillation counter.

[1] = test system: T cell clones that specifically recognize Cry j 1 or Cry j 2; assay: Identifying T cell epitope peptide recognized by T cell clone; settings: 2 μM overlapping peptide; clones from patients
Text: Two patients, Patient B (PB) and Patient J (PJ), who recognize Peptide Nos. 43 and 22 showing a high positivity index in Cry j 1 and three patients, who recognize Peptide Nos. 14, 38, 48, and 69 showing a high positivity index in Cry j 2 were selected from the eighteen patients with cedar pollinosis. Peripheral lymphocytes from these patients with cedar pollinosis were stimulated by Cry j 1 or Cry j 2 to establish T cell clones capable of recognizing Cry j 1 or Cry j 2. The types of HLA class I and class II molecules of the four patients are shown below.
Thirty-five T cell clones in total that specifically recognize Cry j 1 were established from the peripheral lymphocytes derived from PB, and 14 similar T cell clones from PJ. Likewise, 31 T cell clones, 10 T cell clones, and 17 T cell clones in total that specifically recognize Cry j 2 were established from the peripheral lymphocytes derived from PB, PC and PR, respectively. […] A mixture of 5×10^4 cells of the autologous B cell line previously treated with mitomycin C, 2 μM of an overlapping peptide, and 2×10^4 cells of the T cell clone was incubated for 2 days in RPMI-1640 medium supplemented with 0.2 ml of 15% serum on a 96-well micro culture plate. […] After the cells were harvested on a glass filter using a cell harvester, the level of [^3H] thymidine taken up into the cells was determined using a liquid scintillation counter. […]

HLA class II molecules = assay: Identifying the HLA class II restriction molecules (transfected mouse L-cells or haplotype-matched B cell line as antigen-presenting cells); settings: 2 μM peptide
Protocol: HLA class II restriction molecules can be identified using the T cell clones whose restriction molecules were identified at the HLA class II locus level and, as antigen-presenting cells, mouse L-cells transfected with each type for DR and B cell line having the same haplotype for DQ or DP.
A mixture of 5×10^4 mouse L cells previously treated with mitomycin C of the B cell line coincident in haplotype; 2 μM of an overlapping peptide; 3 μg/ml of anti-DR, -DQ or -DP monoclonal antibody (manufactured by Becton-Dickinson Inc.); and 2×10^4 cells of the T cell clone was incubated for 2 days in RPMI-1640 medium supplemented with 0.2 ml of 15% serum on a 96-well micro culture plate. After 0.5 μCi [^3H] thymidine was added to the medium, incubation was continued for a further 18 hours. After the cells were harvested on a glass filter using a cell harvester, the level of [^3H] thymidine taken up into the cells was determined using a liquid scintillation counter.

[2] = test system: T cell line of each patient specifically recognizing Cry j 1 or Cry j 2; assay: T cell line proliferation response to overlapping peptides ([3H] thymidine uptake); settings: mean stimulation index multiplied by frequency of appearance; T cell lines of 18 patients; 2 μM peptide
Protocol: Peripheral lymphocytes from 18 patients with cedar pollinosis were stimulated by cedar pollen allergen Cry j 1 or Cry j 2to establish the T cell line of each patient capable of specifically recognizing the respective allergen.
A mixture of 5×10^4 cells of the autologous B cell line treated with mitomycin C, 2 μM of an overlapping peptide, and 2×10^4 cells of the T cell line was incubated for 2 days in RPMI-1640 medium supplemented with 0.2 ml of 15% serum on a 96-well culture plate. After 0.5 μCi [^3H] thymidine was added to the medium, incubation was continued for a further 18 hours. After the cells were harvested on a glass filter using a cell harvester, the level of [^3H] thymidine taken up into the cells was determined with a liquid scintillation counter. If the stimulation index is 2 or more, we consider that the added peptide is recognized as an antigenic peptide. The stimulation index means a value obtained by dividing the level of [^3H] thymidine taken up into the cells when the peptide was added by the level of [^3H] thymidine taken up into the cells when no peptide was added.
The HLA class II type is considered to vary in every patient. It is thus assumed that a T cell epitope to be recognized would vary depending on the HLA class II type. For this reason, the antigenic peptide that the patients recognized was mapped for the individual patient. […] On the allergen molecule, there are both regions that can be readily recognized and regions that can hardly be recognized, as a T cell epitope, depending on individuals. Moreover, since the proliferation rate of T cells varies depending on a T cell epitope, the epitope map alone makes it difficult to determine what antigenic peptide should be chosen to design the multi-epitope peptide.

[3] = test system: Cry j 1-specific T cell line; assay: Reactivity of Cry j 1-specific T cell line; settings: from patients with cedar pollinosis
Text: (§1) Two peptides (Cha o 1 #8-Cry j 1 #22 core, Cha o 1 #32-Cry j 1 #22 core) were synthesized by joining Peptide No. 8 (p71-90: […] SEQ ID NO. 11) which is a T cell epitope of hinoki pollen allergen Cha o 1 (Japanese Patent Application N. Hei. 8-15327), or Peptide No. 32 ([…]: […] SEQ ID NO. 12) to Cry j 1 #22 core sequence “FIKRVSNVI”(SEQ ID NO. 7) obtained in Example 14 using a peptide synthesizer (PSSM-8, Shimadzu Seisakusho Ltd.). An RR sequence was inserted between Cha o 1 #8 and Cry j 1 #22 core and between Cha o 1 #32 and Cry j 1 #22 core, that is, Cha o 1 #8-Cry j 1 #22 core (SEQ NO: 4) and Cha o 1 #32-Cry j 1 #22 core (SEQ NO: 5).
(§2) A Cry j 1-specific T cell line and a Cha o 1-specific T cell line were prepared from the patients with cedar pollinosis and hinoki pollinosis, respectively. […] However, these T cell lines all react with the multi-epitope peptide of SEQ NO: 4 and with the multi-epitope peptide of SEQ NO: 5.

[4] = test system: T cell lines (PJ, PR, PB) and T cell clones (PB 8-3, PB 8-2, PB 9-39); assay: Determination of core sequence of Cry j 1 peptide No. 22 with T cell lines and clones
Text: To determine the minimum amino acid sequence (core) of the Cry j 1 peptide No. 22 (p106-120) necessary for the T cell line and T cell clone proliferation response, one amino acid residue each was deleted from the N and C terminals of this peptide as shown in FIG. 15 to prepare eleven peptides, i.e., p107-120 (p22-2), P108-120 (p22-3), p109-120 (p22-4), p110-120 (p22-5), p111-120 (p22-6), p106-119 (p22-7), p106-118 (p22-8), p106-117 (p22-9), p106-116 (p22-10), and p106-115 (p22-11) using a peptide synthesizer (PSSM-8, manufactured by Shimadzu Seisakusho Ltd.). The T cell lines (PJ, PR, PB) derived from three patients with cedar pollinosis and which react with Cry j 1 Peptide No. 22, p106-120, and the T cell clones (PB 8-3, PB 8-2, PB 9-39) from one of the patients were examined for the reactivity with these 11 peptides in the same manner as in Examples 1 and 2. […] The results reveal that the p106-120 core sequence consists of nine residues of “FIKRVSNVI”(SEQ ID NO. 7) (the nine residues are designated as Cry j 1 #22 core).

[5] = test system: Cha o 1-specific T cell line; assay: Reactivity of Cha o 1-specific T cell line; settings: from patients with hinoki pollinosis
Text: as §1, §2

Substance | proliferation response of the T cell clones recognizing the respective epitope (T cell clones) | recognition of peptide by allergen-specific T cell clones [1] | peptide-presenting restriction molecule (HLA class II molecules) | positivity index [2] | reactivity of Cry j 1-specific T cell line [3] | proliferation response ([4]; one T cell line and T cell clone) | proliferation response ([4]; two T cell lines (PJ, PB) and two T cell clones (PB 8-2, PB 9-39)) | reactivity of Cha o 1-specific T cell line [5]
KSMKVTVAFNQFGPN [Cry j 1 Peptide No. 43] | react well | recognized | DPA1*0101-DPB1*0501 | 679 |  |  |  | 
Cry j 1 Peptide No. 22: Cry j 1 overlapping peptide No. 22, p106-120 (PCVFIKRVSNVIIHG; Figure 15, p22-1.; listed as Cryptomeria japonica) | react well | recognized | DRB5*0101 | 578 | reacts with | did not show any proliferation response | proliferated | does not react with
